From patent publication US20230277560A1, “USE OF C[…] THE TREATMENT OF SEIZURES ASSOCIATED WITH CHRNA4 MUTATION” (GW Research Limited, priority 2020, published 2023)

System: seizures associated with CHRNA4 mutation
Test: Open label, expanded-access program: seizure frequency in a patient with CHRNA4 mutation
Type: in vivo, human
Settings: for Seizure frequency, Absence: baseline 0.0; for Seizure frequency, Absence / Seizure frequency, Tonic-clonic / Seizure frequency, Atonic / Seizure frequency, Myoclonic: concomitant rufinamide; for Seizure frequency, Tonic-clonic: baseline 0.4; for Seizure frequency, Atonic / Seizure frequency, Myoclonic: baseline 2800.0
Protocol: The subject was required to be on one or more AEDs at stable doses for a minimum of two weeks prior to baseline and to have stable vagus nerve stimulation (VNS) settings and ketogenic diet ratios for a minimum of four weeks prior to baseline.
The patient was administered botanically derived purified CBD in a 100 mg/mL sesame oil-based solution. Dose was increased to a goal of 25 mg/kg/day.
A maximum dose of 50 mg/kg/day could be utilised for the patient if they were tolerating the medication but had not achieved seizure control; the patient had further weekly titration by 5 mg/kg/day.
There was one patient in this study, and they received CBD for 24 weeks. Modifications were made to concomitant AEDs as per clinical indication.
Seizure frequency, intensity, and duration were recorded by caregivers in a diary during a baseline period of at least 28 days. Changes in seizure frequency relative to baseline were calculated after at least 2 weeks and at defined timepoints of treatment.
Patients may be defined as responders if they had more than 50% reduction in seizure frequency compared to baseline. The percent change in seizure frequency was calculated as follows: […]
The percent change of seizure frequency may be calculated for any time interval where seizure number has been recorded. For the purpose of this example the percent change of seizure frequency for the end of the treatment period was calculated as follows: […]

[1] = Patient 1, 4 weeks, CBD 15.0 mg/kg/day
[2] = Patient 1, 8 weeks, CBD 25.0 mg/kg/day
[3] = Patient 1, 12 weeks, CBD 25.0 mg/kg/day
[4] = Patient 1, 16 weeks, CBD 25.0 mg/kg/day
[5] = Patient 1, 24 weeks, CBD 23.8 mg/kg/day
[6] = Patient 1, treated for 24 weeks, relative to baseline

C=C(C)[C@@H]1CCC(C)=C[C@H]1c1c(O)cc(CCCCC)cc1O [CBD, cannabidiol]
Seizure frequency, Absence [1]: 0.0
Seizure frequency, Tonic-clonic [1]: 1.0
Seizure frequency, Atonic [1]: 2800.0
Seizure frequency, Myoclonic [1]: 2800.0
Seizure frequency, Absence [2]: 0.0
Seizure frequency, Tonic-clonic [2]: 0.0
Seizure frequency, Atonic [2]: 2800.0
Seizure frequency, Myoclonic [2]: 2800.0
Seizure frequency, Absence [3]: 0.0
Seizure frequency, Tonic-clonic [3]: 1.0
Seizure frequency, Atonic [3]: 2561.0
Seizure frequency, Myoclonic [3]: 2560.0
Seizure frequency, Absence [4]: 84.0
Seizure frequency, Tonic-clonic [4]: 3.0
Seizure frequency, Atonic [4]: 1260.0
Seizure frequency, Myoclonic [4]: 840.0
frequency of atonic and myoclonic seizures (overall statement) (Patient 1, 24 weeks treatment): effective in reducing the frequency
Seizure frequency, Absence [5]: 140.0
Seizure frequency, Tonic-clonic [5]: 18.7
Seizure frequency, Atonic [5]: 840.0
Seizure frequency, Myoclonic [5]: 840.0
reduction in atonic seizures over the treatment period [6]: 70%
reduction in myoclonic seizures over the treatment period [6]: 70%
number of seizures associated with CHRNA4 mutation (conclusion) (one patient, 24 weeks treatment): significantly reduce
tonic-clonic, atonic, myoclonic and absence seizures (summary statement) (open label, expanded-access program, patients with CHRNA4 mutation): significant reduction
